From patent USRE38132E1, “Phenylpyrrolidines, phenylimidazolidines,3-phenyl-1,3-oxizolidines and 3-phenyl-1,3-thiazolidines and their use in the treatment of inflammatory disease” (Boehringer Ingelheim Pharmaceuticals, Inc., priority 1997, dated 2003)
Read-outs that look alike come from different tables or passages of the source.

Legend:
[1] = target: T1, interaction of ICAM-1 with the Leukointegrin CD18/CD11a (LFA-1) (Homo sapiens, UniProt P05107+P20701); assay: Assay to determine inhibition of LFA-1 binding to ICAM-1 (immunopurified LFA-1 on plate-bound sICAM-1, ELISA readout)
T1 construct: endogenous in cells; sICAM-1: made in house, secreted from transfected CHO DUX cells

[2] = system: cell bound fibronectin receptor (VLA4) with fibronectin, SKW3 cells; assay: Inhibition of SKW3 cell binding to fibronectin (selectivity counter-assay); type: cell-based, human; details: for IC50: Homo sapiens, read-out: Assay to Detect SKW3 Cells Binding to FIBRONECTIN IC50
Summary of the method: (§1)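 Compound-treated, PMA-stimulated human T-cell line SKW3 (50 μg/mL PMA final) allowed to adhere for 2 h at 37° C to wells coated with sICAM-1 at 40 μg/mL or fibronectin at 100 μg/mL. After gentle RPMI wash, 50% inhibition concentration or range reported in μM.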

[3] = system: human MLR, peripheral blood mononuclear cells; assay: Inhibition of the mixed lymphocyte reaction (MLR), tritiated thymidine uptake; type: cell-based; set-up: key: Data are reported as “+” or “−” at a given concentration (in μM); Data are reported as “+” or “−” at a given concentration (in μM)
Procedure: Assay to Determine Inhibition the Mixed Lymphocyte Reaction
As discussed above, ICAM-1 is necessary for effective cellular interactions during an immune response mediated through LFA-1-dependent cell adhesion. When lymphocytes from two unrelated individuals are cultured together, blast transformation and cell proliferation of the lymphocytes are observed. This response is known as a mixed lymphocyte reaction (MLR) and is analogous to the response of lymphocytes to the 10 addition of antigens or mitogens (Immunology: The Science of Self-Nonself Discrimination; Klein, J., Ed.; John Wiley & Sons: NY, 1982, pp 453-458).
This assay protocol is used to determine the effect of a test compound on the human MLR.
Description of Assay Protocol:
Peripheral blood is obtained from normal, healthy donors by venipuncture. The blood is collected in heparinized tubes and diluted 1:1 at room temperature with Puck's G (GIBCO) balanced salt solution (BSS). The blood mixture (20 mL) is layered over 15 mL of a Ficoll/Hypaque density gradient (Pharmacia, density=1.078, room temperature) and centrifuged at 1000·g for 20 minutes. The interface is then collected and washed 3 times in Puck's G. The cells are counted on a hemocytometer and resuspended in RPMI 1640 culture medium (GIBCO) containing 0.5% of gentamicin, 1 mM L-glutamine (GICO) and 5% heat inactivated (56° C., 30 min) human AB sera (Flow Laboratories) (hereafter referred to as RPMI-culture medium).
Stimulator cells (cells that have been treated with irradiation so that they are unable to proliferate) from a separate donor are cultured with the responder cells at the same concentration. Test compound is added to wells at various concentrations. The total volume per culture is 0.2 mL. Controls include compound vehicle alone (DMSO), responder cells alone, and stimulator cells alone. The culture plates are incubated at 37° C. in a 5% CO2-humidified air atmosphere for 5 days.
The wells are pulsed with 0.5 μCi of tritiated thymidine (^3HT) (New England Nuclear) for the last 18 h of culture. In some cases a two-way MLR can be performed. The protocol is the same except that the second donor's cells are not inactivated by irradiation.
The cells are harvested onto glass fiber filters using an automated multiple sample harvester (Skatron, Norway), and rinsed with water and methanol. The filters are oven dried and counted in Aquasol in a Beckman (LS-3801) liquid scintillation counter.
Data are reported as “+” or “−” at a given concentration (in μM).

[4] = system: LFA-1 dependent aggregation of JY cells; assay: JY cell homotypic aggregation assay (PMA-stimulated); type: cell-based, human
Summary of the method: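 Homotypic aggregation of EBV-transformed JY cells, stimulated by phorbol myristate acetate ([…]), scored visually over time in compound presence at 2·10^5 cells/well in serum-supplemented RPMI 1640. Result given as μM concentration or range inhibiting binding by 50%.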

[5] = system: cell bound form of LFA-1 (CD18, CD11a) with ICAM-1, SKW3 cells; assay: Inhibition of SKW3 cell binding to ICAM-1 (PMA-stimulated); type: cell-based, human; details: Homo sapiens, read-out: Assay to Detect SKW3 Cells Binding to ICAM IC50
Summary of the method: as §1

[6] = values marked e approximated from incomplete dose-response curve
[7] = values marked c: no inhibition observed up to highest dose
[8] = SKW3, values marked c: no inhibition observed up to highest dose
[9] = No inh = no inhibition observed up to highest dose, exact quantification not always possible due to intrinsic toxicity
[10] = SKW3, No inh = no inhibition observed up to highest dose, exact quantification not always possible due to intrinsic toxicity

T1 sequence (P20701 26-1170): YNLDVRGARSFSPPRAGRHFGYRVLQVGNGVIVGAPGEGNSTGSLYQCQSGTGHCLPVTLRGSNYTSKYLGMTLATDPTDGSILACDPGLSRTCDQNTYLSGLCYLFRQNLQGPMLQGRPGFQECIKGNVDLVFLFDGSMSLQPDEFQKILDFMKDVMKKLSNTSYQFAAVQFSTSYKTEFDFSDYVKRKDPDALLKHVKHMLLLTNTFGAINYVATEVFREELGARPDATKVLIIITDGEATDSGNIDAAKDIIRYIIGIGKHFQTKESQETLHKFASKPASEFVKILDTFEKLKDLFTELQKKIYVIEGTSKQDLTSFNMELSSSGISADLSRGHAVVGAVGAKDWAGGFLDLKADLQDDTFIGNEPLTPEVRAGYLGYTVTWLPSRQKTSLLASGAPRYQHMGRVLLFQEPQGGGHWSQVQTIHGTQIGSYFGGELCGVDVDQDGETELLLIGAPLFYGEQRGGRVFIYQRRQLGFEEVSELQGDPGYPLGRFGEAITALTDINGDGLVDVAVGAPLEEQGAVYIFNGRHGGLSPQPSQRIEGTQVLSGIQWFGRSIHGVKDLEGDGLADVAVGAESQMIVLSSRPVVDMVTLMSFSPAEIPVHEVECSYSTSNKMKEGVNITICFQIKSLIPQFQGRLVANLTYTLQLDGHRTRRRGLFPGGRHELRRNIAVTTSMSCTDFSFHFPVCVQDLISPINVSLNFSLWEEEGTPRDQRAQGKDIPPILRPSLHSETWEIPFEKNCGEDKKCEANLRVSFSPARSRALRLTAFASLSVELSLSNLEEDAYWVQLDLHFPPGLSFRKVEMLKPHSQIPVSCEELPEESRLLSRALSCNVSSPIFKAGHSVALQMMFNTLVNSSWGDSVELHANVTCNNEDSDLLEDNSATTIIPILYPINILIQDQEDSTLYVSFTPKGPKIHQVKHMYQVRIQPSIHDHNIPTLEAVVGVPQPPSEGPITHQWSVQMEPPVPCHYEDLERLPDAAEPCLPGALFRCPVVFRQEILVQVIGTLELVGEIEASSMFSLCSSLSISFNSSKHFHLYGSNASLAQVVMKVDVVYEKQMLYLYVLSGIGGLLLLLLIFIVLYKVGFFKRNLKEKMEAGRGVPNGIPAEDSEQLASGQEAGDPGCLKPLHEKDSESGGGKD
T1 sequence (P05107 23-769): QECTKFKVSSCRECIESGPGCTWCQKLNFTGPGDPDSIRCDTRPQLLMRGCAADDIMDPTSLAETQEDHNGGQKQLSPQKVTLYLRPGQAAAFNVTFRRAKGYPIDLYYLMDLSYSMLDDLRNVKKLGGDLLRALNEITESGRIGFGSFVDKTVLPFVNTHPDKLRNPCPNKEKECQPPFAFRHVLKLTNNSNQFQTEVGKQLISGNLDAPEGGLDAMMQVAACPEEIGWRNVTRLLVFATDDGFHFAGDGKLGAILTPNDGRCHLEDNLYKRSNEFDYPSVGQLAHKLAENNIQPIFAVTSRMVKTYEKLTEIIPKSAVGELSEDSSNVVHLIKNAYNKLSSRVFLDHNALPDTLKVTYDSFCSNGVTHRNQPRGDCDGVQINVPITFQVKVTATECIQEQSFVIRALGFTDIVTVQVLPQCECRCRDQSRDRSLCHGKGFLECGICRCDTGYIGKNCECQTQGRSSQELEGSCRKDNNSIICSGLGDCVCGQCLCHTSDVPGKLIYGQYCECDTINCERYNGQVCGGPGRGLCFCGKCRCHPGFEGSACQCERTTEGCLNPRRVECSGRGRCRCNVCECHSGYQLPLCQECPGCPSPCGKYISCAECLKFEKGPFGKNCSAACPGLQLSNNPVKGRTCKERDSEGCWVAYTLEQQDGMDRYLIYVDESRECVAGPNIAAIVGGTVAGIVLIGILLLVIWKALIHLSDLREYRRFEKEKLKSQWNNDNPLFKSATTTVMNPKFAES

Compound	Kd [1, 6] [µM]	Assay to Detect SKW3 Cells Binding to FIBRONECTIN IC50 [2, 7]	Mixed Lymphocyte Reaction MLR +/− ([3]; at 25 μM)	Cellular Toxicity Assay MTT LD50 (SKW3 cells) [µM]	IC50 ([4]; Homo sapiens) [µM]	IC50 [5, 8] [µM]	Kd [1] [µM]	Assay to Detect SKW3 Cells Binding to FIBRONECTIN IC50 [2, 9]	IC50 ([5]; SKW3) [µM]	IC50 [2, 8] [µM]	Mixed Lymphocyte Reaction MLR +/− ([3]; at 50 μM)	IC50 [2, 10] [µM]	IC50 [4] [µM]
C[C@H]1C(=O)N(c2cc(Cl)cc(Cl)c2)C(=O)[C@]1(C)Cc1ccc(Br)cc1 [Example 72]	0.06	No inh^c	+(25)	>363	1.4	20 to 40							
C[C@@]1(Cc2ccc(Br)cc2)C(=O)N(c2cc(Cl)cc(Cl)c2)C(=O)N1CCCCCC(=O)O [Example 226]			+(25)	100	1.6		0.07	No inh^c	3 to 6				
CN1C(=O)N(c2cc(Cl)c(Cl)c(Cl)c2)C(=O)[C@@]1(C)Cc1ccc(Br)cc1 [Example 123]	0.1			50 to 100	0.6	12 to 25				> 25	+(50)		
CCCN1C(=O)N(c2cc(Cl)cc(Cl)c2)C(=O)[C@@]1(C)Cc1ccc(Br)cc1 [Example 98]	0.055	No inh^c		>340	3	5 to 10					+(50)		
CN1C(=O)N(c2cc(Cl)cc(Cl)c2)C(=O)C1(C)Cc1ccc(F)cc1 (stereo not drawn) [Example 146]	0.13	No inh^c		100	0.4	13 to 25					+(50)		
CN1C(=O)N(c2cc(Cl)cc(Cl)c2)C(=O)C1(C)Cc1ccc(C#N)cc1 (stereo not drawn) [Example 151]	0.046	No inh^c	+(25)	>410	0.2	5 to 10							
C[C@@]1(Cc2ccc(Br)cc2)C(=O)N(c2cc(Cl)cc(Cl)c2)C(=O)N1Cc1cccc(C(=O)O)c1 [Example 229]				50 to 100	3.1		0.3	No inh^c	6 to 13		+(50)		
CC1(Cc2ccc(Br)cc2)C(=O)N(c2cc(Cl)cc(Cl)c2)C(=O)N1C1CC1 (stereo not drawn) [Example 169]	0.05	No inh^c	+(25)	160 to 230	1.5	12 to 25							
CN1C(=O)N(c2cc(Cl)cc(Cl)c2)C(=O)C1(C)Cc1ccc([N+](=O)[O-])cc1 (stereo not drawn) [Example 157]	0.037	No inh^c	+(25)	>390	0.4	5 to 10							
CN1C(=O)N(c2cc(Cl)cc(Cl)c2)C(=O)[C@@]1(C)Cc1ccc(-c2ccccc2)cc1 [Example 182]	0.05	No inh^c	+(25)	200 to 400	0.02	3 to 6							
CN1C(=O)N(c2cc(Cl)cc(Cl)c2)C(=O)C1Cc1ccc(Br)cc1 (stereo not drawn) [Example 92]	0.12	No inh^c	+(25)	63 to 125	3.1	13 to 25							
C[C@]1(Cc2ccc(C(=O)c3ccccc3)cc2)NC(=O)N(c2cc(Cl)cc(Cl)c2)C1=O [Example 215]				100 to 200			0.2		50 to 100		+(50)	> 100	3.1
C[C@@]1(Cc2ccc(Br)cc2)C(=O)N(c2cc(Cl)cc(Cl)c2)C(=O)N1C[C@@H](O)c1ccccc1 [Example 133]	0.15	No inh^c		>400	0.4	5 to 10							
CN1C(=O)N(c2cc(Cl)cc(Cl)c2)C(=O)C1(CCO)Cc1ccc(Br)cc1 (stereo not drawn) [Example 244]				200 to 400	2.2		3.98	No inh^c	4 to 8				
CN1C(=O)N(c2cc(Cl)c(F)c(Cl)c2)C(=O)[C@@]1(C)Cc1ccc(Br)cc1 [Example 124]	0.03	No inh^c		100 to 200	0.1	1.5							
C[C@@]1(Cc2ccc(Br)cc2)C(=O)N(c2cc(Cl)cc(Cl)c2)C(=O)N1CCCN [Example 240]				11 to 23	6.3		0.11		1 to 3			13.4	
C[C@@]1(Cc2ccc(Br)cc2)C(=O)N(c2cc(Cl)cc(Cl)c2)C(=O)N1C1CCN(CC(=O)O)CC1 [Example 237]				50 to 100	0.1		0.13	No inh^c	1 to 2				
CN1C(=O)N(c2cc(Cl)c(Cl)c(Cl)c2)C(=O)C1(C)Cc1ccc(Br)cc1 (stereo not drawn) [Example 159]	0.11	No inh^c		50 to 100	2	10 to 20							
